Reference: patent US20110028566A1, “COMPOSITIONS AND PRODUCTS CONTAINING CYCLOALIPHATIC DIOL ANTIMICROBIAL AGENTS AND METHODS OF USING THE COMPOSITIONS AND PRODUCTS” (EASTMAN CHEMICAL COMPANY, priority 2009, published 2011)

Key:
Test in all cases: Microbial challenge testing in BPW
Type in all cases: cell-based
Aspergillus niger = test system: Aspergillus niger
Protocol: (§1) The microorganisms used in challenge tests are given in Table 3, designated as either ATCC (American Type Culture Collection) or wild type. These wild type organisms were problematic organisms previously isolated from chemical products. In the description for each organism, the bacteria are indicated as either GN (Gram negative) or GP (Gram positive).
(§2) All of the microorganisms were grown in Tryptose Soy Broth (TSB), DIFCO™ available from Becton, Dickinson and Company, containing 1% dextrose. Aspergillus niger and Candida albicans were incubated at 22° C.±2° C. for at least 96 hours. All bacteria were incubated at 35° C.±2° C. in a humidified incubator for at least 96 hours.
(§3) Aspergillus niger and Candida albicans were also grown on Sabouraud dextrose agar (SDA) at 22° C.±2° C. for 7 to 14 days or until full sporulation was achieved.
(§4) The following procedure was followed to determine the amount of each challenge material (inoculum broth) required to produce a 10^8 cfu/mL challenge, which is equivalent to a final test-sample microbial concentration of 10^5 to 10^6 cfu (colony-forming units)/mL.
(§5) Using a sterile serological pipette, 1 mL of the growth from each TSB culture was transferred into tubes containing 9 mL phosphate buffer (pH 7.2) and mixed thoroughly. This process was repeated to make serial 1:10 dilutions. Then 0.1 mL of each sample and dilution was inoculated onto agar plates to produce the equivalent of a further 1:10 dilution. C. albicans and A. niger were inoculated onto SDA and bacteria were inoculated onto Plate Count Agar (PCA), DIFCO™ available from Becton, Dickinson and Company. The 0.1 mL aliquots were evenly distributed on the plates using the spread-plate technique. The spread-plate technique is performed by spreading the aliquot over the entire plate surface using a sterile spreading rod while rotating the plate with a rotary auto-plater. After the inoculum was absorbed completely, each plate was inverted and incubated (fungi at 22° C.±2° C. and bacteria at 35° C.±2° C.).
(§6) After incubation for at least 48 hours, colonies that had developed on the agar plates were counted and recorded with the corresponding dilution. If counting had to be delayed temporarily, plates were refrigerated, preferably no more than 24 hours, until they could be counted. The number of cfu/mL was determined by multiplying the count by the dilution factor for that particular plate.
(§7) Turbidity in Nepholemetric Turbidity Units (NTU) was measured for each serial dilution using the HF-Micro 100 Model Turbidimeter. For each microorganism, the plate counts were compared to the turbidity readings.
Aspergillus niger cultures were harvested and spores dislodged from the SDA on which they were grown by rubbing the growth gently with a sterile inoculating loop. The spores were then mixed into the broth culture that had been incubated with a sterile magnetic stir bar to reduce pellicle formation. The spore-culture mixture was filtered repeatedly through sterile, non-absorbent cotton and harvested repeatedly, adjusting vegetative cells and spores to a level of 1.0×10^8. A hemocytometer was used to verify the final challenge concentration.
(§8) Control substrates (“broth alone”) were prepared for each microorganism separately in triplicate by adding 13.5 mL of BPW (pH 7.0) containing 1% (w/v) dextrose to each 20-mL glass tube; then adding 1.5 mL challenge material to produce a final concentration at time zero of 10^5 to 10^6 cfu/mL and a total volume of 15 mL.
(§9) Test sample substrates were prepared containing each test material (1,4-CHDM, etc) or combination of test materials at the concentrations shown in Tables 5 and 6.

Candida albicans = test system: Candida albicans
Protocol: as §1, §2, §3, §4, §5, §6, §7
On the day of challenge, the Candida albicans inoculum broth was poured through non-absorbent sterile gauze and centrifuged. The […] was then diluted with phosphate buffer (pH 7.2) until the desired turbidity was reached. Using a hemocytometer, a determination was made whether the challenge contained the desired concentration. Dilutions were made through 1.0×10^8 and three SDA spread plates were inoculated with 0.1 mL of each dilution.
as §8, §9

Aeromonas sp. = test system: Aeromonas sp.
Protocol: as §1, §2, §4, §5, §6, §7, §8
(§10) Test sample substrates were prepared containing each test material (1,4-CHDM, etc) or combination of test materials at the concentrations shown in Tables 5 and 6. Sample substrates were prepared in triplicate, except those substrates containing PE or CG which were prepared in duplicate. Substrates were prepared by adding BPW containing 1% (w/v) dextrose to each 20-mL glass tube, then adding the test material in the amount appropriate to achieve the desired weight/volume percent (g/100 mL) and to obtain a total volume of BPW with dextrose and test material of 13.5 mL. Then 1.5 mL challenge material was added to produce a final concentration at time zero of 10^5 to 10^6 cfu/mL of the respective organism and a total test sample substrate volume of 15 mL.
(§11) After mixing, all challenged substrates were incubated at 35° C.±2° C. for 14 days and then at ambient room temperature.

Bacillus subtilis = test system: Bacillus subtilis
Protocol: as §1, §2, §4, §5, §6, §7, §8, §10, §11

Burkholderia cepacia = test system: Burkholderia cepacia
Protocol: as §1, §2, §4, §5, §6, §7, §8, §10, §11

Escherichia coli = test system: Escherichia coli
Protocol: as §1, §2, §4, §5, §6, §7, §8, §10, §11

For `OCC1CCCC(CO)C1` (stereo not shown) [1,3-CHDM], the “Grade code A. niger” value (Aspergillus niger; 0.5%, 3 days incubation) was 5, the “Grade code A. niger” value (Aspergillus niger; 0.5%, 13 days incubation) was 5 and the “Grade code A. niger” value (Aspergillus niger; 0.5%, 30 days incubation) was 5. The “Grade code A. niger” value (Aspergillus niger; 1.25%, 3 days incubation) was 5, the “Grade code A. niger” value (Aspergillus niger; 1.25%, 13 days incubation) was 4 and the “Grade code A. niger” value (Aspergillus niger; 1.25%, 30 days incubation) was 4. For the same molecule, the “Grade code A. niger” value (Aspergillus niger; 2.5%, 3 days incubation) was 4, the “Grade code A. niger” value (Aspergillus niger; 2.5%, 13 days incubation) was 4 and the “Grade code A. niger” value (Aspergillus niger; 2.5%, 30 days incubation) was 4. For the same molecule, the “Grade code C. albicans” value (Candida albicans; 0.5%, 3 days incubation) was 4 (1001 to 10,000 colonies (thus 10,000 cfu/mL to 100,000 cfu/mL)), the “Grade code C. albicans” value (Candida albicans; 0.5%, 14 days incubation) was 4 (1001 to 10,000 colonies (thus 10,000 cfu/mL to 100,000 cfu/mL)) and the “Grade code C. albicans” value (Candida albicans; 0.5%, 30 days incubation) was 4 (1001 to 10,000 colonies (thus 10,000 cfu/mL to 100,000 cfu/mL)). The “Grade code C. albicans” value (Candida albicans; 1.25%, 3 days incubation) was 4 (1001 to 10,000 colonies (thus 10,000 cfu/mL to 100,000 cfu/mL)), the “Grade code C. albicans” value (Candida albicans; 1.25%, 14 days incubation) was 4 (1001 to 10,000 colonies (thus 10,000 cfu/mL to 100,000 cfu/mL)) and the “Grade code C. albicans” value (Candida albicans; 1.25%, 30 days incubation) was 4 (1001 to 10,000 colonies (thus 10,000 cfu/mL to 100,000 cfu/mL)). The “Grade code C. albicans” value (Candida albicans; 2.5%, 3 days incubation) was 4 (1001 to 10,000 colonies (thus 10,000 cfu/mL to 100,000 cfu/mL)), the “Grade code C. albicans” value (Candida albicans; 2.5%, 14 days incubation) was 4 (1001 to 10,000 colonies (thus 10,000 cfu/mL to 100,000 cfu/mL)) and the “Grade code C. albicans” value (Candida albicans; 2.5%, 30 days incubation) was 4 (1001 to 10,000 colonies (thus 10,000 cfu/mL to 100,000 cfu/mL)). The “Grade code Aeromonas sp” value (Aeromonas sp.; 0.5%, 3 days incubation) was 5 (More than 10,000 colonies estimated (thus >100,000 cfu/mL)), the “Grade code Aeromonas sp” value (Aeromonas sp.; 0.5%, 14 days incubation) was 4 (1001 to 10,000 colonies (thus 10,000 cfu/mL to 100,000 cfu/mL)) and the “Grade code Aeromonas sp” value (Aeromonas sp.; 0.5%, 30 days incubation) was 4 (1001 to 10,000 colonies (thus 10,000 cfu/mL to 100,000 cfu/mL)). For the same molecule, the “Grade code Aeromonas sp” value (Aeromonas sp.; 1.25%, 3 days incubation) was 4 (1001 to 10,000 colonies (thus 10,000 cfu/mL to 100,000 cfu/mL)), the “Grade code Aeromonas sp” value (Aeromonas sp.; 1.25%, 14 days incubation) was 4 (1001 to 10,000 colonies (thus 10,000 cfu/mL to 100,000 cfu/mL)) and the “Grade code Aeromonas sp” value (Aeromonas sp.; 1.25%, 30 days incubation) was 4 (1001 to 10,000 colonies (thus 10,000 cfu/mL to 100,000 cfu/mL)). For the same molecule, the “Grade code B. subtilis” value (Bacillus subtilis; 0.5%, 3 days incubation) was 4 (1001 to 10,000 colonies (thus 10,000 cfu/mL to 100,000 cfu/mL)), the “Grade code B. subtilis” value (Bacillus subtilis; 0.5%, 14 days incubation) was 4 (1001 to 10,000 colonies (thus 10,000 cfu/mL to 100,000 cfu/mL)) and the “Grade code B. subtilis” value (Bacillus subtilis; 0.5%, 30 days incubation) was 4 (1001 to 10,000 colonies (thus 10,000 cfu/mL to 100,000 cfu/mL)). For the same molecule, the “Grade code B. subtilis” value (Bacillus subtilis; 1.25%, 3 days incubation) was 4 (1001 to 10,000 colonies (thus 10,000 cfu/mL to 100,000 cfu/mL)), the “Grade code B. subtilis” value (Bacillus subtilis; 1.25%, 14 days incubation) was 4 (1001 to 10,000 colonies (thus 10,000 cfu/mL to 100,000 cfu/mL)) and the “Grade code B. subtilis” value (Bacillus subtilis; 1.25%, 30 days incubation) was 4 (1001 to 10,000 colonies (thus 10,000 cfu/mL to 100,000 cfu/mL)). The “Grade code B. subtilis” value (Bacillus subtilis; 2.5%, 3 days incubation) was 4 (1001 to 10,000 colonies (thus 10,000 cfu/mL to 100,000 cfu/mL)), the “Grade code B. subtilis” value (Bacillus subtilis; 2.5%, 14 days incubation) was 4 (1001 to 10,000 colonies (thus 10,000 cfu/mL to 100,000 cfu/mL)) and the “Grade code B. subtilis” value (Bacillus subtilis; 2.5%, 30 days incubation) was 4 (1001 to 10,000 colonies (thus 10,000 cfu/mL to 100,000 cfu/mL)). For the same molecule, the “Grade code B. cepacia” value (Burkholderia cepacia; 0.5%, 3 days incubation) was 5 (More than 10,000 colonies estimated (thus >100,000 cfu/mL)), the “Grade code B. cepacia” value (Burkholderia cepacia; 0.5%, 14 days incubation) was 5 (More than 10,000 colonies estimated (thus >100,000 cfu/mL)) and the “Grade code B. cepacia” value (Burkholderia cepacia; 0.5%, 30 days incubation) was 5 (More than 10,000 colonies estimated (thus >100,000 cfu/mL)). For the same molecule, the “Grade code B. cepacia” value (Burkholderia cepacia; 1.25%, 3 days incubation) was 4.7, the “Grade code B. cepacia” value (Burkholderia cepacia; 1.25%, 14 days incubation) was 4.7 and the “Grade code B. cepacia” value (Burkholderia cepacia; 1.25%, 30 days incubation) was 4.7. For the same molecule, the “Grade code B. cepacia” value (Burkholderia cepacia; 2.5%, 3 days incubation) was 4 (1001 to 10,000 colonies (thus 10,000 cfu/mL to 100,000 cfu/mL)), the “Grade code B. cepacia” value (Burkholderia cepacia; 2.5%, 14 days incubation) was 4 (1001 to 10,000 colonies (thus 10,000 cfu/mL to 100,000 cfu/mL)) and the “Grade code B. cepacia” value (Burkholderia cepacia; 2.5%, 30 days incubation) was 4 (1001 to 10,000 colonies (thus 10,000 cfu/mL to 100,000 cfu/mL)). The “Grade code E. coli” value (Escherichia coli; 0.5%, 3 days incubation) was 5 (More than 10,000 colonies estimated (thus >100,000 cfu/mL)), the “Grade code E. coli” value (Escherichia coli; 0.5%, 14 days incubation) was 5 (More than 10,000 colonies estimated (thus >100,000 cfu/mL)) and the “Grade code E. coli” value (Escherichia coli; 0.5%, 30 days incubation) was 5 (More than 10,000 colonies estimated (thus >100,000 cfu/mL)). For the same molecule, the “Grade code E. coli” value (Escherichia coli; 1.25%, 3 days incubation) was 5 (More than 10,000 colonies estimated (thus >100,000 cfu/mL)).
